Source: PMC11851430, “Workflow for E3 Ligase Ligand Validation for PROTAC Development” (ACS Chemical Biology, 2025)

Assays:
MAP2K4 = target: T1, MAP2K4 (Homo sapiens, UniProt P45985); experiment: DSF assay; type: binding; settings: 20 µM compound
T1 construct: purchased in-house DSF panel (SGC-style construct names; the trailing A/B is a construct suffix)
T1 sequence (P45985 102-367): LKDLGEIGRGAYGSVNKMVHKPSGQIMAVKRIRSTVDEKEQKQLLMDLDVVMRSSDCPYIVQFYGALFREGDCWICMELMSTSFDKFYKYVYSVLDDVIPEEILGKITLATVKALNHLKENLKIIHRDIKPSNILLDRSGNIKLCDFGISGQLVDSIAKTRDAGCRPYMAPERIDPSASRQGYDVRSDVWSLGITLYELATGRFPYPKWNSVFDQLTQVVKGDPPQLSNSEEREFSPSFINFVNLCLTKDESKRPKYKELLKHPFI

AAK1A = target: T2, AAK1A (Homo sapiens, UniProt Q2M2I8); experiment: DSF assay; type: binding; settings: 20 µM compound
T2 construct: purchased in-house DSF panel (SGC-style construct names; the trailing A/B is a construct suffix)
T2 sequence (Q2M2I8 27-365): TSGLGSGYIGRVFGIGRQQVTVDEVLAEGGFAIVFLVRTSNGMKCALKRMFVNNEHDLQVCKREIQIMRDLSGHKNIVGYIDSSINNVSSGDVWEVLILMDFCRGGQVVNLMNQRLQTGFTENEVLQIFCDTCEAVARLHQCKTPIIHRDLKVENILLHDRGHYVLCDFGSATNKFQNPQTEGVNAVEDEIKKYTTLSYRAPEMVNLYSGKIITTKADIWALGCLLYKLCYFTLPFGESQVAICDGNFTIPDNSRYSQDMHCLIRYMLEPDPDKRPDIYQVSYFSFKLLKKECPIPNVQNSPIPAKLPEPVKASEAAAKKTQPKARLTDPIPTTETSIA

MAPK13A = target: T3, MAPK13A (Homo sapiens, UniProt O15264); experiment: DSF assay; type: binding; settings: 20 µM compound
T3 construct: purchased in-house DSF panel (SGC-style construct names; the trailing A/B is a construct suffix)
T3 sequence (O15264 1-365): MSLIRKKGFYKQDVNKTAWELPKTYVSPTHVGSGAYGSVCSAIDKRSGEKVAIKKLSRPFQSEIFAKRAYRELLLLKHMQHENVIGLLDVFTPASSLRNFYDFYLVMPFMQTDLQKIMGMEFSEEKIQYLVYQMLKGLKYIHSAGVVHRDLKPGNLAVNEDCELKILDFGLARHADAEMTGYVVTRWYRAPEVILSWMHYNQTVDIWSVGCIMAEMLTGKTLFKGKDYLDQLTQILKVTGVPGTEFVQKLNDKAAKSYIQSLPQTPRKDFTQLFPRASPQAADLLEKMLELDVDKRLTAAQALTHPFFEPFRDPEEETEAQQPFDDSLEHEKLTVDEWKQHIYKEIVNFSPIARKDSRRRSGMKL

PDK4A = target: T4, PDK4A (Homo sapiens, UniProt Q16654); experiment: DSF assay; type: binding; settings: 20 µM compound
T4 construct: purchased in-house DSF panel (SGC-style construct names; the trailing A/B is a construct suffix)
T4 sequence (Q16654 whole entry): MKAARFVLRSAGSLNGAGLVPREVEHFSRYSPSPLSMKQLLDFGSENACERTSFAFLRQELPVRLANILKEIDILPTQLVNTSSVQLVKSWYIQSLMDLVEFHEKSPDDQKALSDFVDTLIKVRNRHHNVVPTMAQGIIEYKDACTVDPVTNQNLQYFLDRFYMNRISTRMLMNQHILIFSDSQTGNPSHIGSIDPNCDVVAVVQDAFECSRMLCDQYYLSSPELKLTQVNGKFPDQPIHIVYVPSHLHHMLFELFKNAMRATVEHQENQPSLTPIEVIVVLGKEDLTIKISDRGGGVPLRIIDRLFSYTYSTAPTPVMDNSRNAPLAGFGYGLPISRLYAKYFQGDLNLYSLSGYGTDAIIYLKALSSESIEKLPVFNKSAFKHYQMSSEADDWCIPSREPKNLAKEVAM

[1] = target: T5, kinase protein levels in MCF-7 cells (Homo sapiens, UniProt A0A0B4J2F0); experiment: TMT-labeled quantitative proteomics; type: cell-based; settings: protein PIGBOS1, MCF7, 1 µM
T5 construct: endogenous in cells; host or cells: MCF-7
T5 sequence (A0A0B4J2F0 1-54): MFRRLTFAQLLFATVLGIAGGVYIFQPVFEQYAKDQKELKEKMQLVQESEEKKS

## CCOC(=O)c1cc(Nc2cc(C3CC3)[nH]n2)nc(Nc2ccc(CC#N)cc2)n1 [compound 5]
MAP2K4
  ΔTm at 20 µM: 5.55 °C
AAK1A
  ΔTm at 20 µM: 10.1 °C
MAPK13A
  ΔTm at 20 µM: 3.76 °C
PDK4A
  ΔTm at 20 µM: 0.03 °C

## CC(C)(C)OC(=O)NCCCOCCOCCOCCCNC(=O)c1cc(Nc2cc(C3CC3)[nH]n2)nc(Nc2ccc(CC#N)cc2)n1 [5-L]
MAP2K4
  ΔTm at 20 µM: 2.91 °C
AAK1A
  ΔTm at 20 µM: 12.1 °C
MAPK13A
  ΔTm at 20 µM: 3.98 °C
PDK4A
  ΔTm at 20 µM: 0.13 °C

## Cc1ncsc1-c1ccc(CNC(=O)[C@@H]2C[C@@H](O)CN2C(=O)[C@@H](NC(=O)CCOCCOCCNC(=O)c2cc(Nc3cc(C4CC4)[nH]n3)nc(Nc3ccc(CC#N)cc3)n2)C(C)(C)C)cc1 [5-a]
[1]; set1.1
  P.Value (compound/DMSO): 0.533
  log2FC (compound/DMSO): 0.05527

## Cc1ncsc1-c1ccc(CNC(=O)[C@@H]2C[C@@H](O)CN2C(=O)[C@@H](NC(=O)CCOCCOCCOCCOCCN2CCN(c3ccc(Nc4ncc(Cl)c(Nc5ccccc5C(N)=O)n4)cc3)CC2)C(C)(C)C)cc1 [6-b]
[1]; set1.1
  P.Value (compound/DMSO): 0.6062
  log2FC (compound/DMSO): -0.04609

## Cc1ncsc1-c1ccc(CNC(=O)[C@@H]2C[C@@H](O)CN2C(=O)[C@@H](NC(=O)CCOCCOCCOCCN2CCN(c3cc(Nc4cc(C5CC5)[nH]n4)nc(Nc4ccc(CC#N)cc4)n3)CC2)C(C)(C)C)cc1 [4-a]
[1]; set1.1
  P.Value (compound/DMSO): 0.3761
  log2FC (compound/DMSO): 0.1046

## CC(C)(C)OC(=O)NCCOCCOCCOCCOCCC(=O)N1CCN(c2cc(Nc3cc(C4CC4)[nH]n3)nc(Nc3ccc(CC#N)cc3)n2)CC1 [4-L]
MAP2K4
  ΔTm at 20 µM: 2.65 °C
AAK1A
  ΔTm at 20 µM: 13.2 °C
MAPK13A
  ΔTm at 20 µM: 3.4 °C
PDK4A
  ΔTm at 20 µM: 1.49 °C

## CC(=O)N[C@H](C(=O)N1C[C@H](O)C[C@H]1C(=O)NCc1ccc(-c2scnc2C)cc1OCCOCCOCCOCCNC(=O)c1cc(Nc2cc(C3CC3)[nH]n2)nc(Nc2ccc(CC#N)cc2)n1)C(C)(C)C [5-b]
[1]; set2
  P.Value (compound/DMSO): 0.8938
  log2FC (compound/DMSO): 0.0131

## CC(=O)N[C@H](C(=O)N1C[C@H](O)C[C@H]1C(=O)NCc1ccc(-c2scnc2C)cc1OCCOCCOCCOCCOCCC(=O)N1CCN(c2ccc(Nc3ncc(Cl)c(Nc4ccccc4C(N)=O)n3)cc2)CC1)C(C)(C)C [6-e]
[1]; set2
  P.Value (compound/DMSO): 0.4063
  log2FC (compound/DMSO): 0.08613
